Paper PMC12679848, “Sulphonamide derivatives with a triazine core as novel inducers of apoptosis and pyroptosis in glioblastoma multiforme cells” (Journal of Enzyme Inhibition and Medicinal Chemistry, 2025)

Key:
A172 xenografts = assay: Zebrafish xenograft, A172; format: in vivo; details: 10 µM, 48 h, 0.1% DMSO control 4%
Procedure: (§1) In our study, we used wild-type AB zebrafish embryos obtained from the certified Experimental Medicine Centre (Lublin, Poland). Adult zebrafish were raised at 28.5 °C under 14 h of light and 10 h of the dark cycle and fed in accordance with the guidelines established by the Research Animals Department of the RSPCA. Fertilised eggs were obtained by natural spawning; healthy clutches were processed for study or propagated for line maintenance. Embryos were maintained in the E3 medium (5 mM NaCl, 0.33 mM MgCl2, 0.33 mM CaCl2, 0.17 mM KCl; pH 7.2) at 28.5 °C. The use of animals in scientific research in Europe is governed by the Directive 2010/63/EU of 22 September 2010. […] All procedures in this study were performed on embryos up to 5 dpf.
(§2) A172 and U-87MG cell lines were labelled with Vybrant Did (Invitrogen, Waltham, MA, USA) according to the manufacturer’s protocol. Stained cells were re-suspended in Dulbecco’s modified Eagle’s medium (DMEM) at the final concentration of 1 × 10^7 cells/mL. 24 h post-fertilisation (hpf) zebrafish were manually dechorionated. […]
(§3) Xenograft imaging has been performed before (48 hpf) and after (120 hpf) drugs treatment using an EVOS M5000 Imaging System with the filter Cy5 (excitation: 628 nm; emission: 692 nm). […] Tumour sizes were analysed as the area of labelled tumour cells according Ali et al.[18] using EVOS software.

U-87MG xenografts = assay: Zebrafish xenograft, U-87 MG; format: in vivo; details: U-87 MG zebrafish xenografts, 10 µM, 48 h; 0.1% DMSO control 22%
Procedure: as §1, §2, §3

SMILES | average tumour size reduction (A172 xenografts) [%] | tumour size reduction (U-87MG xenografts) [%]
CCC(CO)NS(=O)(=O)c1ccc(-n2nc(C)c3nc4nnnn4nc32)cc1 (stereo in doubt) [MM118, N-(R)-(1-hydroxy-but-2-yl)-4-[7-methyl-5H-pyrazolo[4,3-e]tetrazolo[1,5-b][1]^,[2]^,[4]triazin-5-yl)]benzenesulfonamide] | 55 | 51
CCC(CO)NS(=O)(=O)c1ccc(-n2nc(C)c3nc4nnnn4nc32)cc1 (stereo in doubt) [MM119, N-(S)-(1-hydroxy-but-2-yl)-4-[7-methyl-5H-pyrazolo[4,3-e]tetrazolo[1,5-b][1]^,[2]^,[4]triazin-5-yl)]benzenesulfonamide] | 56 | 56
